In one data set the test system is anti-nicotine antibodies. In kind it is binding.
The conditions of data set [1]: five BSA digoxin immunised rabbits, cited from earlier work.
For data set [2] the following is noted: liver, cited from earlier work.
Setting [3] is: antibodies elicited by Nic-O-Su-Cholera Toxin B conjugates, relative to nicotine.

Where two headings read alike, the source gives them in different places.

In the data set on anti-nicotine antibodies (setting [3]), `CN1C(=O)C[C@@H](C(=O)O)[C@@H]1c1cccnc1` (relative stereo) [trans-4-cotininecarboxylic acid] came in with an immunologic cross-reactivity of 0.19%. Regarding `CN1C(=O)CC[C@H]1c1cccnc1` [cotinine], the immunologic cross-reactivity in the data set with anti-nicotine antibodies (setting [3]) is 1.1%. For the compound `C[C@H]1O[C@@H](O[C@H]2[C@@H](O)C[C@H](O[C@H]3[C@@H](O)C[C@H](O[C@H]4CC[C@@]5(C)[C@H](CC[C@@H]6[C@@H]5C[C@@H](O)[C@]5(C)[C@@H](C7=CC(=O)OC7)CC[C@]65O)C4)O[C@@H]3C)O[C@@H]2C)C[C@H](O)[C@@H]1O` [digoxin], the figures for the “mean serum concentration of digoxin” value in data set [1] (at one year) and in data set [1] (initially) were 85 nanogram/ml and 8200 nanogram/ml, respectively. As for `CN1CCCC1c1cccnc1` (centres unmarked) [nicotine], in data set [2] (flavin containing monooxygenase 3), the “nicotine transformed to nicotine N'-oxide” value is on record as 4-7%. Besides, in data set [2] (uridine diphosphate-glucuronosyltransferase), the “nicotine glucuronidation, share of metabolized nicotine” value was 3-5%.

In turn, `O=C(O)c1cccnc1` [nicotinic acid] displayed an immunologic cross-reactivity in the data set on anti-nicotine antibodies of 0.09%. In the case of `c1cncc([C@@H]2CCCN2)c1` [nornicotine], the immunologic cross-reactivity in the data set on anti-nicotine antibodies (setting [3]) turned out to be 4%.

Values taken from patent US20060111271A1 (priority 2004, published 2006).
